According to patent US8889712B2, “IAP antagonists” (Bristol-Myers Squibb Company, priority 2012, dated 2014):
Read-outs that look alike come from different tables or passages of the source.

Legend:
XIAP BIR2-3 = target: T1, XIAP BIR2-3 (Homo sapiens, UniProt P98170, C202A/C213G); assay: XIAP-BIR2-3 dimeric SMAC Peptide Homogeneous Time Resolved Fluorescence (HTRF) Assay; assay type: binding
T1 construct: His-BIR2-3 (125-356, C202A/C213G, XIAP)
Protocol: B. […] Assays were performed in black, flat-bottom, 384-well plates. […] Compounds were dissolved at 3 mM in dimethylsulfoxide (DMSO) and evaluated at eleven serially diluted concentrations. IC50 and Ki values were derived by non-linear regression analysis.

XIAP BIR3 = target: T2, XIAP BIR3 (Homo sapiens, UniProt P98170); assay: XIAP-BIR3/SMAC Homogeneous Time Resolved Fluorescence (HTRF) Assay; assay type: binding
T2 construct: His-BIR3 (241-356, XIAP)
T2 sequence (P98170 241-356): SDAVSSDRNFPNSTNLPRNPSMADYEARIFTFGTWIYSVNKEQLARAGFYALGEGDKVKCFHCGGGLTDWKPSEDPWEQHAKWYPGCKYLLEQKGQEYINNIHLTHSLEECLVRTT
Method in brief: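 Competition HTRF between XIAP-BIR3 and SMAC; reaction 60 min at room temperature, then anti-6×His-terbium Fab detection for a further 30 min.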

[1] = 0.5 nM N-His-BIR2-3 (125-356, C202A/C213G, XIAP), 20 nM fluorescein labeled dimeric SMAC peptide, HTRF signal, read-out: XIAP BIR2-3 IC50
[2] = 1 nM N-His-BIR3 (241-356, XIAP), 5 nM fluorescein labeled SMAC peptide, HTRF signal, read-out: XIAP BIR3 IC50

T1 sequence (P98170 125-356 C202A/C213G): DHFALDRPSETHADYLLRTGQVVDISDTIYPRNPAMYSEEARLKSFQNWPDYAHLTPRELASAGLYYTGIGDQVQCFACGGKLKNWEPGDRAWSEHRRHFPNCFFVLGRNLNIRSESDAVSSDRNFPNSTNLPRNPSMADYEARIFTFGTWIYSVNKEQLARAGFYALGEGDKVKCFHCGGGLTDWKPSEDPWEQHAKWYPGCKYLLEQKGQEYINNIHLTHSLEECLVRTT

Row | Molecule | IC50 (XIAP BIR2-3) [nM] | IC50 (XIAP BIR3) [nM] | IC50 (XIAP BIR2-3; [1]) [nM] | IC50 (XIAP BIR3; [2]) [nM]
1 | CN[C@@H](C)C(=O)N[C@H](C(=O)N1C[C@@H](c2ccc3c(c2)CN(C(=O)[C@@H](NC(=O)[C@H](C)NC)C(C)(C)C)[C@H](C(=O)N[C@@H]2CCCc4ccccc42)C3)C[C@H]1C(=O)N[C@@H](Cc1ccccc1)C(=O)NCCc1ccccc1)C(C)(C)C [Example 66, (S)-2-((S)-3,3-Dimethyl-2-((S)-2-(methylamino)propanamido)butanoyl)-7-((3R,5S)-1-((S)-3,3-dimethyl-2-((S)-2-(methylamino)propanamido)butanoyl)-5-(((S)-1-oxo-1-(phenethylamino)-3-phenylpropan-2-yl)carbamoyl)pyrrolidin-3-yl)-N-((R)-1,2,3,4-tetrahydronaphthalen-1-yl)-1,2,3,4-tetrahydroisoquinoline-3-carboxamide] | 3.1 | 13.3 |  | 
2 | (S)-2-((S)-3-Cyclopentyl-2-((S)-2-(methylamino) propanamido)propanoyl)-N^7-((3S,5S)-1-((S)-3,3-dimethyl-2- ((S)-2-(methylamino)propanamido)butanoyl)-5-(((R)-1,2,3,4- tetrahydronaphthalen-1-yl)carbamoyl)pyrrolidin-3-yl)-N^3- ((R)-1,2,3,4-tetrahydronaphthalen-1-yl)-1,2,3,4- tetrahydroisoquinoline-3,7-dicarboxamide [Example 6] |  |  | 2 | 14
3 | CN[C@@H](C)C(=O)N[C@H](C(=O)N1C[C@@H](c2ccc3c(c2)CN(C(=O)[C@@H](NC(=O)[C@H](C)NC)C(C)(C)C)[C@H](C(=O)N[C@@H]2CCCc4ccccc42)C3)C[C@H]1C(=O)N[C@@H](Cc1ccccc1)C(=O)N1CCOCC1)C(C)(C)C [Example 47, (S)-2-((S)-3,3-Dimethyl-2-((S)-2-(methylamino)propanamido)butanoyl)-7-((3R,5S)-1-((S)-3,3-dimethyl-2-((S)-2-(methylamino)propanamido)butanoyl)-5-(((S)-1-morpholino-1-oxo-3-phenylpropan-2-yl)carbamoyl)pyrrolidin-3-yl)-N-((R)-1,2,3,4-tetrahydronaphthalen-1-yl)-1,2,3,4-tetrahydroisoquinoline-3-carboxamide] |  |  | 2.4 | 17.5
4 | CN[C@@H](C)C(=O)N[C@H](C(=O)N1Cc2cc(C(=O)N[C@H]3C[C@@H](C(=O)N[C@@H]4CCCc5ccccc54)N(C(=O)[C@@H](NC(=O)[C@H](C)NC)C(C)(C)C)C3)ccc2C[C@H]1C(=O)N[C@@H]1CCCc2ccccc21)[C@@H](C)OC [Example 7, (S)-N^7-((3S,5S)-1-((S)-3,3-Dimethyl-2-((S)-2-(methylamino)propanamido)butanoyl)-5-(((R)-1,2,3,4-tetrahydronaphthalen-1-yl)carbamoyl)pyrrolidin-3-yl)-2-((2S,3R)-3-methoxy-2-((S)-2-(methylamino)propanamido)butanoyl)-N^3-((R)-1,2,3,4-tetrahydronaphthalen-1-yl)-1,2,3,4-tetrahydroisoquinoline-3,7-dicarboxamide] |  |  | 6 | 6
5 | CCC(CC)[C@H](NC(=O)[C@H](CC)NC)C(=O)N1C[C@@H](NC(=O)c2ccc3c(c2)CN(C(=O)[C@@H](NC(=O)[C@H](C)NC)C(C)(C)C)[C@H](C(=O)N[C@@H]2CCCc4ccccc42)C3)C[C@H]1C(=O)N[C@@H]1CCCc2ccccc21 [Example 16, (S)-2-((S)-3,3-Dimethyl-2-((S)-2-(methylamino)propanamido)butanoyl)-N^7-((3S,5S)-1-((S)-3-ethyl-2-((S)-2-(methylamino)butanamido)pentanoyl)-5-(((R)-1,2,3,4-tetrahydronaphthalen-1-yl)carbamoyl)pyrrolidin-3-yl)-N^3-((R)-1,2,3,4-tetrahydronaphthalen-1-yl)-1,2,3,4-tetrahydroisoquinoline-3,7-dicarboxamide] |  |  | 10 | 19
6 | CN[C@@H](C)C(=O)N[C@H](C(=O)N1C[C@@H](c2ccc3c(c2)CN(C(=O)[C@@H](NC(=O)[C@H](C)NC)C(C)(C)C)[C@H](C(=O)N[C@@H]2CCCc4ccccc42)C3)C[C@H]1C(=O)N[C@@H](Cc1ccccc1)C(=O)NS(=O)(=O)c1ccccc1)C(C)(C)C [Example 48, (S)-2-((S)-3,3-Dimethyl-2-((S)-2-(methylamino)propanamido)butanoyl)-7-((3R,5S)-1-((S)-3,3-dimethyl-2-((S)-2-(methylamino)propanamido)butanoyl)-5-(((S)-1-oxo-3-phenyl-1-(phenylsulfonamido)propan-2-yl)carbamoyl)pyrrolidin-3-yl)-N-((R)-1,2,3,4-tetrahydronaphthalen-1-yl)-1,2,3,4-tetrahydroisoquinoline-3-carboxamide] | 0.7 | 0.8 |  | 
7 | CN[C@@H](C)C(=O)N[C@H](C(=O)N1Cc2cc(C(=O)N[C@H]3C[C@@H](C(=O)N[C@@H]4CCCc5ccccc54)N(C(=O)[C@@H](NC(=O)[C@H](C)NC)C(C)(C)C)C3)ccc2C[C@H]1C(=O)N[C@@H]1CCCc2ccccc21)C(c1ccccc1)c1ccccc1 [Example 89, (S)-N^7-((3S,5S)-1-((S)-3,3-dimethyl-2-((S)-2-(methylamino)propanamido)butanoyl)-5-(((R)-1,2,3,4-tetrahydronaphthalen-1-yl)carbamoyl)pyrrolidin-3-yl)-2-((S)-2-((S)-2-(methylamino)propanamido)-3,3-diphenylpropanoyl)-N^3-((R)-1,2,3,4-tetrahydronaphthalen-1-yl)-1,2,3,4-tetrahydroisoquinoline-3,7-dicarboxamide] |  |  | 360 | 37.8
8 | CN[C@@H](C)C(=O)N[C@H](C(=O)N1C[C@@H](c2ccc3c(c2)CN(C(=O)[C@@H](NC(=O)[C@H](C)NC)C(C)(C)C)[C@H](C(=O)N[C@@H]2CCCc4ccccc42)C3)C[C@H]1C(=O)N[C@@H](Cc1ccccc1)C(=O)NS(=O)(=O)C1CC1)C(C)(C)C [Example 50, (S)-7-((3R,5S)-5-(((S)-1-(Cyclopropanesulfonamido)-1-oxo-3-phenylpropan-2-yl)carbamoyl)-1-((S)-3,3-dimethyl-2-((S)-2-(methylamino)propanamido)butanoyl)pyrrolidin-3-yl)-2-((S)-3,3-dimethyl-2-((S)-2-(methylamino)propanamido)butanoyl)-N-((R)-1,2,3,4-tetrahydronaphthalen-1-yl)-1,2,3,4-tetrahydroisoquinoline-3-carboxamide] |  |  | 1.2 | 0.9
9 | CCC(CC)[C@H](NC(=O)[C@H](C)NC)C(=O)N1Cc2cc(C(=O)N[C@H]3C[C@@H](C(=O)N[C@@H]4CCCc5ccccc54)N(C(=O)[C@@H](NC(=O)[C@H](C)NC)C(C)(C)C)C3)ccc2C[C@H]1C(=O)N[C@@H]1CCCc2ccccc21 [Example 8, (S)-N^7-((3S,5S)-1-((S)-3,3-Dimethyl-2-((S)-2-(methylamino)propanamido)butanoyl)-5-(((R)-1,2,3,4-tetrahydronaphthalen-1-yl)carbamoyl)pyrrolidin-3-yl)-2-((S)-3-ethyl-2-((S)-2-(methylamino)propanamido)pentanoyl)-N^3-((R)-1,2,3,4-tetrahydronaphthalen-1-yl)-1,2,3,4-tetrahydroisoquinoline-3,7-dicarboxamide] |  |  | 2 | 11
10 | CN[C@@H](C)C(=O)N[C@H](C(=O)N1Cc2cc([C@H]3C[C@@H](C(=O)N[C@@H](Cc4ccccc4)C(=O)O)N(C(=O)[C@@H](NC(=O)[C@H](C)NC)C(C)(C)C)C3)ccc2C[C@H]1C(=O)N[C@@H](Cc1ccccc1)C(=O)O)C(C)(C)C [Example 86, (S)-2-((S)-7-((3R,5S)-5-(((S)-1-Carboxy-2-phenylethyl)carbamoyl)-1-((S)-3,3-dimethyl-2-((S)-2-(methylamino)propanamido)butanoyl)pyrrolidin-3-yl)-2-((S)-3,3-dimethyl-2-((S)-2-(methylamino)propanamido)butanoyl)-1,2,3,4-tetrahydroisoquinoline-3-carboxamido)-3-phenylpropanoic acid] |  |  | 2.7 | 5
11 | CN[C@@H](C)C(=O)N[C@H](C(=O)N1C[C@@H](NC(=O)c2ccc3c(c2)CN(C(=O)[C@@H](NC(=O)[C@@H](NC)C(C)C)C(C)(C)C)[C@H](C(=O)N[C@@H]2CCCc4ccccc42)C3)C[C@H]1C(=O)N[C@@H]1CCCc2ccccc21)C(C)(C)C [Example 4, (S)-N^7-((3S,5S)-1-((S)-3,3-Dimethyl-2-((S)-2-(methylamino)propanamido)butanoyl)-5-(((R)-1,2,3,4-tetrahydronaphthalen-1-yl)carbamoyl)pyrrolidin-3-yl)-2-((S)-3,3-dimethyl-2-((S)-3-methyl-2-(methylamino)butanamido)butanoyl)-N^3-((R)-1,2,3,4-tetrahydronaphthalen-1-yl)-1,2,3,4-tetrahydroisoquinoline-3,7-dicarboxamide] |  |  | 11 | 10
12 | CN[C@@H](C)C(=O)N[C@H](C(=O)N1Cc2cc(C(=O)N[C@H]3C[C@@H](C(=O)NC4CCCc5ccccc54)N(C(=O)[C@@H](NC(=O)[C@H](C)NC)C(C)(C)C)C3)ccc2C[C@H]1C(=O)NC1CCCc2ccccc21)C1CCOCC1 (stereo partly drawn) [Example 13] |  |  | 2 | 6
